# In US20090239841A1, “Diaryl Ureas as CB1 Antagonists” (priority 2004, published 2009):
# pIC50: −log10 of the molar value.
# Biological target: T1, hCB1 (Homo sapiens, UniProt P21554)
# T1 construct: made in house; host or cells: Sf9 insect cells (baculovirus), P2 membranes
# Assay: Agonist-induced GTP binding (GTPγ35S) assay at CB1, Example 8
# Assay type: biochemical
# Conditions: IC50 at CB1, determined as described in Example 8; read-out: IC50
# How it was run: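 Membranes from Sf9 cells co-expressing hCB1 and heterotrimeric G-protein (10 μg protein) in Tris pH 7.4 buffer with 5 μM GDP. Test compounds (10^−10–10^−5 M) competed against 1 nM CP55,940 with […] GTPγ35S, 60 min at room temperature. Filter-bound radioactivity by scintillation, expressed as percent above basal.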
# T1 sequence (P21554 whole entry): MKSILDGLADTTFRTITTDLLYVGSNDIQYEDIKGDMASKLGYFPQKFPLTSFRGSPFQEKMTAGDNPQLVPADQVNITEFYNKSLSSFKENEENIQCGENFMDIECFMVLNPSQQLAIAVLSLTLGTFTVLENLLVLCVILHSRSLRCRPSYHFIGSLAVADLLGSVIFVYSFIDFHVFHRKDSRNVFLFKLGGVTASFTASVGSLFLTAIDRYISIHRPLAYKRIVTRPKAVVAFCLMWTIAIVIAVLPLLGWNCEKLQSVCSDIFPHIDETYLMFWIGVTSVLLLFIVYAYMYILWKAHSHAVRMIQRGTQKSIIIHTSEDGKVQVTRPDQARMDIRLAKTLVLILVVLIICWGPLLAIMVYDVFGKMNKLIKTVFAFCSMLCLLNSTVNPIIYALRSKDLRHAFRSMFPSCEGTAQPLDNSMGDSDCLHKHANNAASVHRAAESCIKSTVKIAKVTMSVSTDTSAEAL
row,Compound,pIC50
1,"CC(=O)c1ccc(NC(=O)Nc2ccc(CC#N)cc2)cc1 [Compound 505, 1-(4-acetylphenyl)-3-[4-(cyanomethyl)phenyl]urea]",> 5.70
2,"N#CCOc1ccc(NC(=O)Nc2cccc(C#N)c2)cc1 [Compound 507, 1-[4-(cyanomethoxy)phenyl]-3-(3-cyanophenyl)urea]",> 5.70
3,"CC(=O)c1ccc(NC(=O)Nc2ccc(OCC#N)cc2)cc1 [Compound 508, 1-(4-acetylphenyl)-3-[4-(cyanomethoxy)phenyl]urea]",> 5.70
4,"CCC(=O)c1ccc(NC(=O)Nc2cccc(C#N)c2)cc1 [Compound 509, 1-(3-cyanophenyl)-3-(4-propionylphenyl)urea]",> 5.70
5,"CCOC(=O)c1ccc(NC(=O)Nc2cccc(C(C)=O)c2)cc1 [Compound 512, ethyl 4-({[(3-acetylphenyl)amino]carbonyl}amino)benzoate]",> 5.70
6,"CC(=O)c1cccc(NC(=O)Nc2ccc(C(=O)OC(C)C)cc2)c1 [Compound 513, isopropyl 4-({[(3-acetylphenyl)amino]carbonyl}amino)benzoate]",> 5.70
7,"CC(=O)c1ccc(NC(=O)Nc2ccc(C(=O)OC(C)C)cc2)cc1 [Compound 514, isopropyl 4-({[(4-acetylphenyl)amino]carbonyl}amino)benzoate]",> 5.70
8,"CCc1ccc(NC(=O)Nc2ccccc2[N+](=O)[O-])cc1 [Compound 515, 1-(4-ethylphenyl)-3-(2-nitrophenyl)urea]",> 5.70
9,"CCc1ccc(NC(=O)Nc2ccc(OC(F)(F)F)cc2)cc1 [Compound 517, 1-(4-ethylphenyl)-3-[4-(trifluoromethoxy)phenyl]urea]",> 5.70
10,"CC(C)c1ccc(NC(=O)Nc2ccc(OC(F)F)cc2)cc1 [Compound 518, 1-[4-(difluoromethoxy)phenyl]-3-(4-isopropylphenyl)urea]",> 5.70
11,"CCCc1ccc(NC(=O)Nc2ccc(OC(F)(F)F)cc2)cc1 [Compound 519, 1-(4-propylphenyl)-3-[4-(trifluoromethoxy)phenyl]urea]",> 5.70
12,"O=C(Nc1ccc(OC(F)F)cc1)Nc1cccc(Br)c1 [Compound 520, 1-(3-bromophenyl)-3-[4-(difluoromethoxy)phenyl]urea]",> 5.70
13,"COc1cccc(NC(=O)Nc2ccc(C(C)C)cc2)c1 [Compound 521, 1-(4-isopropylphenyl)-3-(3-methoxyphenyl)urea]",> 5.70
14,"CCCc1ccc(NC(=O)Nc2cccc(OC)c2)cc1 [Compound 524, 1-(3-methoxyphenyl)-3-(4-propylphenyl)urea]",> 5.70
15,"CCCc1ccc(NC(=O)Nc2ccc(OCC)cc2)cc1 [Compound 526, 1-(4-ethoxyphenyl)-3-(4-propylphenyl)urea]",> 5.70
16,"CCc1ccc(NC(=O)Nc2cccc([N+](=O)[O-])c2)cc1 [Compound 527, 1-(4-ethylphenyl)-3-(3-nitrophenyl)urea]",> 5.70
17,"CC(C)c1ccc(NC(=O)Nc2ccc([N+](=O)[O-])cc2)cc1 [Compound 528, 1-(4-isopropylphenyl)-3-(4-nitrophenyl)urea]",> 5.70
18,"CCCc1ccc(NC(=O)Nc2ccc([N+](=O)[O-])cc2)cc1 [Compound 529, 1-(4-nitrophenyl)-3-(4-propylphenyl)urea]",> 5.70
19,"COc1ccc(NC(=O)Nc2ccc(OC(F)F)cc2)cc1 [Compound 530, 1-[4-(difluoromethoxy)phenyl]-3-(4-methoxyphenyl)urea]",> 5.70
20,"CCOc1cccc(NC(=O)Nc2ccc(OC(F)(F)F)cc2)c1 [Compound 531, 1-(3-ethoxyphenyl)-3-[4-(trifluoromethoxy)phenyl]urea]",> 5.70
21,"CCOc1ccc(NC(=O)Nc2ccc(OC(F)(F)F)cc2)cc1 [Compound 532, 1-(4-ethoxyphenyl)-3-[4-(trifluoromethoxy)phenyl]urea]",> 5.70
22,"CCCOc1ccc(NC(=O)Nc2ccc(OC(F)(F)F)cc2)cc1 [Compound 535, 1-(4-propoxyphenyl)-3-[4-(trifluoromethoxy)phenyl]urea]",> 5.70
23,"CC(C)Oc1cccc(NC(=O)Nc2ccc(OC(F)(F)F)cc2)c1 [Compound 536, 1-(3-isopropoxyphenyl)-3-[4-(trifluoromethoxy)phenyl]urea]",> 5.70
24,"CC(C)Oc1ccc(NC(=O)Nc2ccccc2OC(F)F)cc1 [Compound 537, 1-[2-(difluoromethoxy)phenyl]-3-(4-isopropoxyphenyl)urea]",> 5.70
25,"O=C(Nc1cccc(OC(F)F)c1)Nc1ccccc1OC(F)F [Compound 539, 1-[2-(difluoromethoxy)phenyl]-3-[3-(difluoromethoxy)phenyl]urea]",> 5.70
26,"O=C(Nc1ccc(OC(F)(F)F)cc1)Nc1cccc(OC(F)F)c1 [Compound 540, 1-[3-(difluoromethoxy)phenyl]-3-[4-(trifluoromethoxy)phenyl]urea]",> 5.70
27,"CCOc1ccc(NC(=O)Nc2cccc(OCC)c2)cc1 [Compound 543, 1-(3-ethoxyphenyl)-3-(4-ethoxyphenyl)urea]",> 5.70

# Continued, values first:
row,pIC50,Compound
1,> 5.70,"CC(=O)c1cccc(NC(=O)Nc2ccc(CC#N)cc2)c1 [Compound 504, 1-(3-acetylphenyl)-3-[4-(cyanomethyl)phenyl]urea]"
2,> 5.70,"N#CCOc1ccc(NC(=O)Nc2ccc(C#N)cc2)cc1 [Compound 506, 1-[4-(cyanomethoxy)phenyl]-3-(4-cyanophenyl)urea]"
3,> 5.70,"COC(=O)c1ccc(NC(=O)Nc2ccc(C(C)=O)cc2)cc1 [Compound 510, methyl 4-({[(4-acetylphenyl)amino]carbonyl}amino)benzoate]"
4,> 5.70,"CCOC(=O)c1ccc(NC(=O)Nc2cccc(C#N)c2)cc1 [Compound 511, ethyl 4-({[(3-cyanophenyl)amino]carbonyl}amino)benzoate]"
5,> 5.70,"COc1ccc(NC(=O)Nc2ccc(C(C)C)cc2)cc1 [Compound 522, 1-(4-isopropylphenyl)-3-(4-methoxyphenyl)urea]"
6,> 5.70,"CCCc1ccc(NC(=O)Nc2ccc(OC)cc2)cc1 [Compound 525, 1-(4-methoxyphenyl)-3-(4-propylphenyl)urea]"
7,> 5.70,"COCc1ccc(NC(=O)Nc2ccc(OC(F)F)cc2)cc1 [Compound 533, 1-[4-(difluoromethoxy)phenyl]-3-[4-(methoxymethyl)phenyl]urea]"
8,> 5.70,"CCCOc1ccc(NC(=O)Nc2ccccc2OC(F)F)cc1 [Compound 534, 1-[2-(difluoromethoxy)phenyl]-3-(4-propoxyphenyl)urea]"
9,> 5.70,"CC(C)Oc1ccc(NC(=O)Nc2ccc(OC(F)(F)F)cc2)cc1 [Compound 538, 1-(4-isopropoxyphenyl)-3-[4-(trifluoromethoxy)phenyl]urea]"
10,> 5.70,"O=C(Nc1cccc(OC(F)F)c1)Nc1ccccc1OC(F)(F)F [Compound 541, 1-[3-(difluoromethoxy)phenyl]-3-[2-(trifluoromethoxy)phenyl]urea]"
11,> 5.70,"CCOc1cccc(NC(=O)Nc2ccc(OC)cc2)c1 [Compound 542, 1-(3-ethoxyphenyl)-3-(4-methoxyphenyl)urea]"
12,> 5.70,"COCc1ccc(NC(=O)Nc2cccc(OC)c2)cc1 [Compound 544, 1-[4-(methoxymethyl)phenyl]-3-(3-methoxyphenyl)urea]"
13,> 5.70,"COCc1ccc(NC(=O)Nc2ccc(OC)cc2)cc1 [Compound 545, 1-[4-(methoxymethyl)phenyl]-3-(4-methoxyphenyl)urea]"
